What all share (format): functional
Holding throughout (details): read-out: GI

The test system of test [1] is Brassica napus. As to the kind of experiment: Herbicidal activity against Brassica napus (oilseed rape) assessed as inhibition of root growth at 100 mg/L relative to untreated control.
The test system of test [2] is Brassica napus. Kind of test: Herbicidal activity against Brassica napus (oilseed rape) assessed as inhibition of root growth at 10 mg/L relative to untreated control.
Test [3] has as its system Brassica napus. As to the kind of experiment: Herbicidal activity against Brassica napus (oilseed rape) assessed as inhibition of stalk growth at 100 mg/L relative to untreated control.
For test [4], the system named is Brassica napus. As to the kind of experiment: Herbicidal activity against Brassica napus (oilseed rape) assessed as inhibition of stalk growth at 10 mg/L relative to untreated control.
Test [5] has as its system Echinochloa crus-galli. As to the kind of experiment: Herbicidal activity against barnyard grass Echinochloa crus-galli (barnyard grass) assessed as inhibition of root growth at 100 mg/L relative to untreated control.
Test [6] deals with Echinochloa crus-galli. Kind of test: Herbicidal activity against barnyard grass Echinochloa crus-galli (barnyard grass) assessed as inhibition of root growth at 10 mg/L relative to untreated control.
In test [7] the test system is Echinochloa crus-galli. Kind of test: Herbicidal activity against barnyard grass Echinochloa crus-galli (barnyard grass) assessed as inhibition of stalk growth at 100 mg/L relative to untreated control.
The subject of test [8] is Echinochloa crus-galli. Kind of test: Herbicidal activity against barnyard grass Echinochloa crus-galli (barnyard grass) assessed as inhibition of stalk growth at 10 mg/L relative to untreated control.

In the case of `CCOC(=O)c1s/c(=N\Cc2ccccc2Cl)n(-c2ccccc2)c1N`, the inhibition of growth at 100 µg/mL stood at 38.6% in test [1], 34.8% in test [3], 19.4% in test [5] and 26.5% in test [7]. In addition, the inhibition of growth at 10 µg/mL in test [2] is -9.3%; in test [4], -13%; in test [6] it was 18.8%; in test [8] it was 12.9%.

With `CCCC/N=c1\sc(C(=O)OCC)c(N)n1-c1ccccc1`, the inhibition of growth at 100 µg/mL amounted to 29.3% in test [1], 39.1% in test [3], 34.4% in test [5] and 22.6% in test [7]. In addition, the inhibition of growth at 10 µg/mL in test [2] stood at 0%; in test [4], 0%; in test [6], 25%; in test [8], 19.4%.

On to `CCOC(=O)c1s/c(=N\c2ccccc2)n(-c2ccccc2)c1N`, for which the inhibition of growth at 100 µg/mL in test [1] amounted to 71.7%; in test [3] it was 64%; in test [5] it was 86%; in test [7], 43.3%. Also, the inhibition of growth at 10 µg/mL was determined as 37.7% in test [2], 52% in test [4], 69.8% in test [6] and 31.6% in test [8].

For the molecule `CCOC(=O)c1s/c(=N\c2ccc(C)cc2)n(-c2ccccc2)c1N`, the inhibition of growth at 100 µg/mL in test [1] was found to be 79.2%; in test [3], 44%; in test [5], 88.4%; in test [7], 49.6%. The inhibition of growth at 10 µg/mL was found to be 34% in test [2], 44% in test [4], 79.1% in test [6] and 25.9% in test [8].

For `CCOC(=O)c1s/c(=N\CC/N=c2/sc(C(=O)OCC)c(N)n2-c2ccccc2)n(-c2ccccc2)c1N`, the inhibition of growth at 100 µg/mL in test [1] was determined as 76.9%; in test [3] it was 52%; in test [5], 58.6%; in test [7], 34.6%. In addition, the inhibition of growth at 10 µg/mL in test [2] was determined as 39.7%; in test [4], 52%; in test [6], 37.9%; in test [8] it was 15.4%.

On to `CCCCCC/N=c1\sc(C(=O)OCC)c(N)n1-c1ccccc1`, for which the inhibition of growth at 100 µg/mL was 92.5% in test [1], 89% in test [3], 86% in test [5] and 33.3% in test [7]. Further, the inhibition of growth at 10 µg/mL is 43.4% in test [2], 64% in test [4], 76.7% in test [6] and 33.3% in test [8].

In the case of `CCOC(=O)c1s/c(=N\Cc2ccccc2)n(-c2ccccc2)c1N`, the inhibition of growth at 100 µg/mL in test [1] was 98.1%; in test [3], 92%; in test [5] it was 83.7%; in test [7], 44.4%. Moreover, the inhibition of growth at 10 µg/mL in test [2] stood at 47.2%; in test [4] it was 20%; in test [6] it was 74.4%; in test [8], 40.7%.

As for `CCOC(=O)c1s/c(=N\CCC/N=c2\sc(C(=O)OCC)c(N)n2-c2ccccc2)n(-c2ccccc2)c1N`, the inhibition of growth at 100 µg/mL in test [1] was 41%; in test [3], 36%; in test [5], 58.6%; in test [7], 34.6%. The inhibition of growth at 10 µg/mL in test [2] came out at 7.7%; in test [4], 12%; in test [6] it was 31%; in test [8], 3.8%.

Take `CCOC(=O)c1s/c(=N\c2ccc(OC)cc2)n(-c2ccccc2)c1N`: the inhibition of growth at 100 µg/mL in test [1] was found to be 94.3%; in test [3], 92%; in test [5], 90.7%; in test [7], 61.9%. The inhibition of growth at 10 µg/mL in test [2] is 64%; in test [4], 66%; in test [6], 74.4%; in test [8], 42.2%.

For `CCOC(=O)c1s/c(=N\c2ccc(Br)cc2)n(-c2ccccc2)c1N`, the inhibition of growth at 100 µg/mL in test [1] stood at 90.6%; in test [3], 72%; in test [5], 88.4%; in test [7], 48.1%. In addition, the inhibition of growth at 10 µg/mL in test [2] is 32.1%; in test [4], 44%; in test [6] it was 76.7%; in test [8], 31.6%.

Regarding `O=C(O)COc1ccc(Cl)cc1Cl` [2,4-DICHLOROPHENOXYACETIC ACID], the inhibition of growth at 100 µg/mL in test [1] was found to be 98%; in test [3] it was 91.2%; in test [5] it was 97.5%; in test [7] it was 43.5%. The inhibition of growth at 10 µg/mL was 88.8% in test [2], 87.5% in test [4], 90% in test [6] and 33.3% in test [8].

For `CCOC(=O)c1s/c(=N\CCCCCC/N=c2/sc(C(=O)OCC)c(N)n2-c2ccccc2)n(-c2ccccc2)c1N`, the inhibition of growth at 100 µg/mL in test [1] worked out at 50%; in test [3], 32%; in test [5], 69%; in test [7], 38.5%. For the same molecule, the inhibition of growth at 10 µg/mL turned out to be 21.8% in test [2], 12% in test [4], 34.5% in test [6] and 19.2% in test [8].

In the case of `CCC/N=c1\sc(C(=O)OCC)c(N)n1-c1ccccc1`, the inhibition of growth at 100 µg/mL in test [1] is 48%; in test [3] it was 26.1%; in test [5] it was 68.1%; in test [7] it was 35.5%. Also, the inhibition of growth at 10 µg/mL in test [2] was 40%; in test [4] it was 4.3%; in test [6] it was 50%; in test [8], 9.7%.

The record behind these values is ChEMBL document CHEMBL3046053, “Synthesis, characterization and herbicidal activity of new thiazoline derivatives” (2013).
